Data on 10 compounds can be found in DBAASP.

The structures appear in SMILES notation. In brackets after ≈: the same amount, converted by molar mass.

Common to all, as to test: ≥ marks a high value that may be exact or a test limit, other limits are often not marked, values filed in µg/mL are converted to µM
The test system of experiment [1] is Candida albicans NCPF 1467.
Experiment [2] deals with Staphylococcus aureus NCTC 10788.
The test system of experiment [3] is Streptococcus agalactiae.
In experiment [4] the test system is Salmonella enterica subsp. enterica serovar Typhi ATCC 6399.
In experiment [5] the test system is Staphylococcus aureus ATCC 25923.
Experiment [6] relates to Bacillus subtilis ATCC 6633.
Experiment [7] concerns Pseudomonas aeruginosa ATCC 9027.
Experiment [8] has as its system Escherichia coli ATCC 25922.
Experiment [9] deals with Escherichia coli CVCC 1570.
In experiment [10] the test system is Bacillus subtilis CVCC 717.
In experiment [11] the test system is Bacillus pumilus CVCC 709.
Experiment [12] concerns Micrococcus luteus CVCC 1600.
Experiment [13] has as its system Staphylococcus aureus CVCC 1882.
Experiment [14] concerns Candida albicans ATCC 20032.
The subject of experiment [15] is Candida albicans ATCC 10231.
The subject of experiment [16] is Botrytis cinerea.
The subject of experiment [17] is Escherichia coli ATCC 11775.
Experiment [18] concerns Staphylococcus aureus ATCC 12600.
In experiment [19] the test system is Salmonella typhimurium.
Experiment [20] has as its system Shigella dysenteriae.
For experiment [21], the system named is Pseudomonas aeruginosa.
Experiment [22] concerns Staphylococcus epidermidis.
Experiment [23] has as its system Escherichia coli.
Experiment [24] concerns Proteus mirabilis.
In experiment [25] the test system is Staphylococcus aureus.
The subject of experiment [26] is Micrococcus luteus.
For experiment [27], the system named is Bacillus subtilis.
Experiment [28] concerns Klebsiella pneumoniae.
In experiment [29] the test system is Klebsiella pneumoniae ATCC 13883.
For experiment [30], the system named is Staphylococcus aureus USA 300 LAC.

As to `CC[C@H](C)[C@H](NC(=O)[C@H](C)NC(=O)CNC(=O)[C@H](CC(C)C)NC(=O)[C@@H](N)Cc1ccccc1)C(=O)N[C@@H](C)C(=O)N[C@@H](C)C(=O)N[C@@H](C)C(=O)N[C@@H](CC(C)C)C(=O)N1CCC[C@H]1C(=O)N[C@@H](Cc1cnc[nH]1)C(=O)N[C@H](C(=O)N[C@H](C(=O)N[C@@H](CC(N)=O)C(=O)N[C@@H](C)C(=O)N[C@H](C(=O)N[C@H](C(=O)N[C@@H](CC(N)=O)C(=O)N[C@@H](C)C(=O)N[C@@H](CC(C)C)C(=O)O)[C@@H](C)O)C(C)C)[C@@H](C)CC)C(C)C` [FLGAIAAALPHVINAVTNAL], the minimal inhibitory concentration (MIC) – broadly, the lowest concentration found to suppress growth – in experiment [1] was not below 120 µM; in [2], 16 µM (≈ 31.6 µg/mL).
On to `CC[C@H](C)[C@H](NC(=O)[C@H](CO)NC(=O)[C@H](CCCCN)NC(=O)[C@H](C)NC(=O)[C@H](C)NC(=O)[C@H](CC(N)=O)NC(=O)[C@H](Cc1c[nH]c2ccccc12)NC(=O)[C@H](CC(C)C)NC(=O)[C@@H](NC(=O)[C@H](CO)NC(=O)[C@H](CC(C)C)NC(=O)[C@@H](N)Cc1ccccc1)[C@@H](C)O)C(=O)N[C@@H](Cc1ccccc1)C(N)=O` [FLSTLWNAAKSIF], for which the MIC in experiment [3] turned out to be 20 µM (≈ 29.9 µg/mL); in [4], 10 µM (≈ 15 µg/mL); in [5], 10 µM (≈ 15 µg/mL); in experiment [6] it was 20 µM (≈ 29.9 µg/mL); in [7] it was 10 µM (≈ 15 µg/mL); in [8], 20 µM (≈ 29.9 µg/mL).
Consider `CC[C@H](C)[C@H](NC(=O)[C@H](CO)NC(=O)[C@H](CCCCN)NC(=O)[C@H](CCCN=C(N)N)NC(=O)[C@H](C)NC(=O)[C@H](C)NC(=O)CN)C(=O)N[C@@H](CCCN=C(N)N)C(=O)N[C@@H](CC(C)C)C(=O)N[C@@H](Cc1cnc[nH]1)C(=O)N[C@@H](CCCN=C(N)N)C(=O)N[C@@H](CC(C)C)C(=O)N[C@@H](Cc1ccc(O)cc1)C(=O)N[C@H](C(=O)N[C@@H](Cc1c[nH]c2ccccc12)C(=O)N[C@@H](CCCCN)C(=O)N[C@@H](C)C(=O)N[C@H](C(=O)N[C@H](C(=O)N[C@@H](Cc1ccc(O)cc1)C(=O)N[C@H](C(=O)N[C@@H](CCCN=C(N)N)C(=O)O)[C@@H](C)O)[C@@H](C)CC)[C@@H](C)O)[C@@H](C)O` [GAARKSIRLHRLYTWKATIYTR], for which the MIC in experiment [9] came out at 16.7 µM (≈ 44.5 µg/mL); in [10], 13.3 µM (≈ 35.4 µg/mL); in experiment [11], 9 µM (≈ 24 µg/mL); in experiment [12], 8 µM (≈ 21.3 µg/mL); in experiment [13] it was 23.3 µM (≈ 62 µg/mL).
As for `CC[C@H](C)[C@H](NC(=O)CN)C(=O)NCC(=O)NCC(=O)N[C@@H](C)C(=O)N[C@@H](CC(C)C)C(=O)N[C@@H](CC(C)C)C(=O)N[C@@H](CO)C(=O)N[C@H](C(=O)NCC(=O)N[C@@H](CCCCN)C(=O)N[C@@H](CO)C(=O)N[C@@H](C)C(=O)N[C@@H](CC(C)C)C(=O)N[C@@H](CCCCN)C(=O)NCC(=O)N[C@@H](CC(C)C)C(=O)N[C@H](C(=O)N[C@@H](CCCCN)C(=O)NCC(=O)N[C@@H](CC(C)C)C(=O)N[C@@H](C)C(=O)N[C@@H](CCC(=O)O)C(=O)N[C@@H](Cc1cnc[nH]1)C(=O)N[C@@H](Cc1ccccc1)C(N)=O)[C@@H](C)O)C(C)C` [GIGGALLSVGKSALKGLTKGLAEHF], the MIC in experiment [5] was 30.9 µM (≈ 75 µg/mL); in experiment [6] it was not below 41.2 µM; in experiment [14], not below 41.2 µM; in [8] it was more than 41.2 µM.
Regarding `CC[C@H](C)[C@H](N)C(=O)N[C@@H](CC(C)C)C(=O)NCC(=O)N[C@H](C(=O)N[C@H](C(=O)N[C@H](C(=O)N[C@@H](CO)C(=O)N[C@@H](CC(C)C)C(=O)N[C@@H](CC(C)C)C(=O)N[C@@H](CCCCN)C(=O)N[C@@H](CO)C(=O)N[C@@H](CC(C)C)C(N)=O)[C@@H](C)O)[C@@H](C)CC)[C@@H](C)CC` [ILGIITSLLKSL], the MIC in experiment [15] was 15.7 µM (≈ 20 µg/mL); in [16], 0.394 µM (≈ 0.5 µg/mL); in experiment [17], not below 78.7 µM; in [18], 19.7 µM (≈ 25 µg/mL).
For the compound `CC[C@H](C)[C@H](N)C(=O)N[C@@H](CC(C)C)C(=O)NCC(=O)N[C@@H](CC(C)C)C(=O)N[C@H](C(=O)N[C@H](C(=O)N[C@@H](CO)C(=O)N[C@H](C(=O)N[C@H](C(=O)NCC(=O)N[C@@H](CC(N)=O)C(=O)N[C@H](C(=O)N[C@@H](CC(C)C)C(=O)NCC(=O)NCC(=O)N[C@@H](CC(C)C)C(=O)N[C@@H](CC(C)C)C(=O)N[C@@H](CCCCN)C(=O)N[C@@H](CC(N)=O)C(=O)N[C@@H](CC(C)C)C(N)=O)C(C)C)[C@@H](C)CC)[C@@H](C)O)[C@@H](C)CC)C(C)C` [ILGLVISTIGNVLGGLLKNL], the MIC is more than 49.8 µM in experiment [5], not below 49.8 µM in experiment [6], not below 49.8 µM in experiment [14] and more than 49.8 µM in experiment [8].
Regarding `CSCC[C@H](NC(=O)[C@@H](NC(=O)[C@H](C)NC(=O)[C@@H]1CCCN1C(=O)[C@H](CO)NC(=O)[C@@H](N)CC(C)C)C(C)C)C(=O)N[C@@H](C)C(=O)N[C@@H](CO)C(=O)N[C@@H](CC(C)C)C(=O)N[C@@H](C)C(N)=O` [LSPAVMASLA], the MIC in [15] was more than 200 µM; in experiment [16], not below 200 µM; in [17], not below 200 µM; in experiment [18], not below 200 µM.
In the case of `CC(C)C[C@H](NC(=O)[C@@H](NC(=O)[C@H](CCCCN)NC(=O)[C@H](CO)NC(=O)[C@H](C)NC(=O)[C@@H](NC(=O)[C@H](CCCCN)NC(=O)[C@H](Cc1ccccc1)NC(=O)[C@H](CC(C)C)NC(=O)[C@H](C)NC(=O)CNC(=O)[C@H](CC(C)C)NC(=O)[C@@H](N)Cc1c[nH]c2ccccc12)C(C)C)C(C)C)C(=O)O` [WLGALFKVASKVL], the minimum inhibitory concentration (MIC) is not below 69.8 µM in experiment [19]; 17.5 µM (≈ 25 µg/mL) in experiment [20]; 69.8 µM (≈ 100 µg/mL) in [21]; 2.17 µM (≈ 3.1 µg/mL) in experiment [22]; 8.73 µM (≈ 12.5 µg/mL) in experiment [23]; not below 140 µM in experiment [24]. For the same compound, the minimal inhibitory concentration (MIC) in experiment [25] worked out at 1.12 µM (≈ 1.6 µg/mL); in [26], 1.12 µM (≈ 1.6 µg/mL); in experiment [27], 4.4 µM (≈ 6.3 µg/mL); in experiment [28] it was 17.5 µM (≈ 25 µg/mL).
Take `CC[C@H](C)[C@H](NC(=O)[C@H](CCCCN)NC(=O)[C@H](CCCN=C(N)N)NC(=O)[C@H](CC(C)C)NC(=O)[C@H](Cc1c[nH]c2ccccc12)NC(=O)[C@@H](N)Cc1c[nH]c2ccccc12)C(=O)N[C@@H](Cc1c[nH]c2ccccc12)C(=O)N[C@@H](Cc1c[nH]c2ccccc12)C(N)=O` [WWLRKIWW]: the MIC in experiment [29] is not below 50 µM; in [30] it was 6.2 µM (≈ 7.89 µg/mL); in [8] it was 25 µM (≈ 31.8 µg/mL).
For `CC(C)[C@H](NC(=O)[C@@H]1CCCN1C(=O)[C@@H]1CCCN1C(=O)[C@@H](NC(=O)[C@@H](N)Cc1ccc(O)cc1)C(C)C)C(=O)N[C@@H](CCC(N)=O)C(=O)N[C@@H](CCCCN)C(=O)N1CCC[C@H]1C(=O)N[C@@H](Cc1cnc[nH]1)C(=O)N1CCC[C@H]1C(=O)N[C@@H](CC(N)=O)C(=O)NCC(=O)N1CCC[C@H]1C(=O)N[C@@H](CCCCN)C(=O)N[C@@H](Cc1ccccc1)C(=O)N1CCC[C@H]1C(=O)N[C@H](C(=O)N[C@@H](Cc1ccccc1)C(=O)N1CCC[C@H]1C(=O)O)[C@@H](C)O` [YVPPVQKPHPNGPKFPTFP], the minimum inhibitory concentration (MIC) was 23.3 µM (≈ 50 µg/mL) in [9]; 16.7 µM (≈ 35.9 µg/mL) in [10]; 13.3 µM (≈ 28.6 µg/mL) in experiment [11]; 13.3 µM (≈ 28.6 µg/mL) in experiment [12]; not below 133 µM in experiment [13].
